Read-outs that look alike come from different tables or passages of the source.

The source of these data is patent US20020169101A1, “Treatment of sexual dysfunction” (priority 1999, published 2002).

For assay [1], the target named is T1, human NMB receptor (BB1) (Homo sapiens, UniProt P28336).
T1 construct: expressed in transfected cells; membranes prepared from the cells
Description: BB1 binding assay ([125I][Tyr4]bombesin displacement, CHO-K1 membranes). As for the experimental part:
(§1) In the following experiments, measurement of BB1 and BB2 binding was as follows. CHO-K1 cells stably expressing cloned human NMB (for (BB1 assay) and GRP receptors (for BB2 assay) were routinely grown in Ham's F12 culture medium supplemented with 10% foetal calf serum and 2 mM glutamine. For binding experiments, cells were harvested by trypsinization, and stored frozen at −70° C. in Ham's F12 culture medium containing 5% DMSO until required. On the day of use, cells were thawed rapidly, diluted with an excess of culture medium, and centrifuged for 5 minutes at 2000 g. Cells were resuspended in 50 mM Tris-HCl assay buffer (pH 7.4 at 21° C., containing 0.02% BSA, 40 μg/mL bacitracin, 2 μg/mL chymostatin, 4 μg/mL leupeptin, and 2 μM phosphoramidon), counted, and polytronned (setting 5, 10 sec) before centrifuging for 10 minutes at 28,000 g. The final pellet was resuspended in assay buffer to a final cell concentration of 1.5×10^5/mL. For binding assays, […] aliquots of membranes were incubated with [^125I][Tyr^4]bombesin (<0.1 nM) in the presence and absence of test compounds (final assay volume 250 μL) for 60 minutes and 90 minutes for NMB and GRP receptors, respectively. Nonspecific binding was defined by 1 μM bombesin. Assays were terminated by rapid filtration under vacuum onto Whatman GF/C filters presoaked in 0.2% PEI for >2 hours, and washed 50 mM Tris-HCl (pH 6.9 at 21° C.; 6×1 mL). Radioactivity bound was determined using a gamma counter.
(§2) All competition data was analysed using nonlinear regression utilizing iterative curve-plotting procedures in Prism® (GraphPad Software Inc., San Diego, USA). IC50 values were corrected to Ki values using the Cheng-Prusoff equation (Cheng Y., Prusoff W. H., Biochem. Pharmacol. 22: 3099-3108, 1973). obtained are listed in Table 1.

Assay [2] addresses T2, human GRP receptor (BB2) (Homo sapiens, UniProt P30550).
T2 construct: expressed in transfected cells; membranes prepared from the cells
Description: BB2 binding assay ([125I][Tyr4]bombesin displacement, CHO-K1 membranes). As for the experimental part:
as §1, §2

Where [3] appears, read: second 'TABLE 4', N-terminal urethane derivatives of Intermediate III-7.
The mark [4] stands for this setting: Table 3, N-acyl derivatives of Intermediate III-7.

T2 sequence (P30550 whole entry): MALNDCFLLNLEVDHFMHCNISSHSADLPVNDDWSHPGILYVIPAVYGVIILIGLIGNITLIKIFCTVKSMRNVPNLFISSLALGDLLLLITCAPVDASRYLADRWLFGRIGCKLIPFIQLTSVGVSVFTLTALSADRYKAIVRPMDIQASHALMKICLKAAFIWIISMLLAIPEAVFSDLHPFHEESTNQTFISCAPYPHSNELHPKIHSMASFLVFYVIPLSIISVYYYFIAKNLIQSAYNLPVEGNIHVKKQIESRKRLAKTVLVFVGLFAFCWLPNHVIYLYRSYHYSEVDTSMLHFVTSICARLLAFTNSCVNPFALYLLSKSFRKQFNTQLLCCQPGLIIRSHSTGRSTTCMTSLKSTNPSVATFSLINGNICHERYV
T1 sequence (P28336 whole entry): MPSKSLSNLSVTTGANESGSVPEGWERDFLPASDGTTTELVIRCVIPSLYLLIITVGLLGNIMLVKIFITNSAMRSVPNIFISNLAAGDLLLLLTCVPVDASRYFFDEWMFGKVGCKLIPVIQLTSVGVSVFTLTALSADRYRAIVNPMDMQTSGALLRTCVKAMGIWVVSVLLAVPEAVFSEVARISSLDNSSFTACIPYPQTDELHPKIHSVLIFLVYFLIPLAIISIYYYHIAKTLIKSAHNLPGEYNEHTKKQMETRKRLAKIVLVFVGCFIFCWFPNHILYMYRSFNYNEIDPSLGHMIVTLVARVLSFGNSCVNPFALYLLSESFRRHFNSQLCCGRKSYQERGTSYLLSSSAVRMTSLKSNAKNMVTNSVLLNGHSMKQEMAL

As usually defined, the IC50 is the concentration that gives 50% inhibition. A low value points to greater potency in that assay. Consider `C[C@@](Cc1c[nH]c2ccccc12)(NC(=O)OCc1ccc([N+](=O)[O-])cc1)C(=O)NCC1(c2ccccn2)CCCCC1` [Example 96, {(S)-2-(1H-Indol-3-yl)-1-methyl-1-[(1-pyridin-2-yl-cyclohexylmethyl)-carbamoyl]-ethyl}-carbamic acid 4-nitro-benzyl ester], for which the IC50 in assay [1] (setting [3]) turned out to be 0.041 µM; in assay [2] (setting [3]), 0.463 µM.

With `Cc1cccc(C(=O)N[C@@](C)(Cc2c[nH]c3ccccc23)C(=O)NCC2(c3ccccn3)CCCCC2)c1` [Example 43, N—{(S)-2-(1H-Indol-3-yl)-1-methyl-1-[(1-pyridin-2-yl-cyclohexylmethyl)-carbamoyl]-ethyl}-3-methyl-benzamide], the IC50 in assay [1] (setting [4]) is 2.35 µM; in assay [2] (setting [4]), above 10 µM.

For `C[C@@](Cc1c[nH]c2ccccc12)(NC(=O)OCc1cccc(Cl)c1Cl)C(=O)NCC1(c2ccccn2)CCCCC1` [Example 109, {(S)-2-(1H-Indol-3-yl)-1-methyl-1-[(1-pyridin-2-yl-cyclohexylmethyl)-carbamoyl]-ethyl}-carbamic acid 2,3-dichloro-benzyl ester], the IC50 was 0.152 µM in assay [1] (setting [3]) and above 10 µM in assay [2] (setting [3]).

As for `C[C@@](Cc1c[nH]c2ccccc12)(NC(=O)OCc1cccc2ccccc12)C(=O)NCC1(c2ccccn2)CCCCC1` [Example 87, {(S)-2-(1H-Indol-3-yl)-1-methyl-1-[(1-pyridin-2-yl-cyclohexylmethyl)-carbamoyl]-ethyl}-carbamic acid naphthalen-1-ylmethyl ester], the IC50 was 0.239 µM in assay [1] (setting [3]) and above 10 µM in assay [2] (setting [3]).

Consider `COc1ccc(COC(=O)N[C@@](C)(Cc2c[nH]c3ccccc23)C(=O)NCC2(c3ccccn3)CCCCC2)cc1OC` [Example 88, {(S)-2-(1H-Indol-3-yl)-1-methyl-1-[(1-pyridin-2-yl-cyclohexylmethyl)-carbamoyl]-ethyl}-carbamic acid 3,4-dimethoxy-benzyl ester], for which the IC50 in assay [1] (setting [3]) was 1.76 µM; in assay [2] (setting [3]), above 10 µM.

Consider `C[C@@](Cc1c[nH]c2ccccc12)(NS(=O)(=O)c1ccccc1Cl)C(=O)NCC1(c2ccccn2)CCCCC1` [Example 113, (S)-2-(2-chloro-benzenesulfonylamino)-3-(1H-indol-3-yl)-2-methyl-N-(1-pyridin-2-yl-cyclohexylmethyl)-propionamide], for which the IC50 in assay [1] is 0.257 µM; in assay [2] it was above 10 µM.

In the case of `C[C@@](Cc1c[nH]c2ccccc12)(NC(=O)c1cc2ccccc2s1)C(=O)NCC1(c2ccccn2)CCCCC1` [Example 71, Benzo[b]thiophene-2-carboxylic acid {(S)-2-(1H-indol-3-yl)-1-methyl-1-[(1-pyridin-2-yl-cyclohexylmethyl)-carbamoyl]-ethyl}-amide], the IC50 in assay [1] (setting [4]) is 0.611 µM; in assay [2] (setting [4]), above 10 µM.

Consider `C[C@@](Cc1c[nH]c2ccccc12)(NC(=O)c1cccc2cccnc12)C(=O)NCC1(c2ccccn2)CCCCC1` [Example 79, Quinoline-8-carboxylic acid {(S)-2-(1H-indol-3-yl)-1-methyl-1-[(1-pyridin-2-yl-cyclohexylmethyl)-carbamoyl]-ethyl}-amide], for which the IC50 in assay [1] (setting [4]) is 4.48 µM; in assay [2] (setting [4]) it was above 10 µM.

As to `C[C@@](Cc1c[nH]c2ccccc12)(NC(=O)c1cccc(S(C)(=O)=O)c1)C(=O)NCC1(c2ccccn2)CCCCC1` [Example 41, N—{(S)-2-(1H-Indol-3-yl)-1-methyl-1-[(1-pyridin-2-yl-cyclohexylmethyl)-carbamoyl]-ethyl}-3-methanesulfonyl-benzamide], the IC50 was 3.05 µM in assay [1] (setting [4]) and above 10 µM in assay [2] (setting [4]).

For the compound `CCOc1cccc(COC(=O)N[C@@](C)(Cc2c[nH]c3ccccc23)C(=O)NCC2(c3ccccn3)CCCCC2)c1` [Example 102, {(S)-2-(1H-Indol-3-yl)-1-methyl-1-[(1-pyridin-2-yl-cyclohexylmethyl)-carbamoyl]-ethyl}-carbamic acid 3-ethoxy-benzyl ester], the values for the IC50 in assay [1] (setting [3]) and in assay [2] (setting [3]) were 1.06 µM and above 10 µM, respectively.

`C[C@@](Cc1c[nH]c2ccccc12)(NC(=O)c1cccc(Cl)c1)C(=O)NCC1(c2ccccn2)CCCCC1` [Example 39, 3-Chloro-N—{(S)-2-(1H-indol-3-yl)-1-methyl-1-[(1-pyridin-2-yl-cyclohexyl-methyl)-carbamoyl]-ethyl}-benzamide]: the results for the IC50 in assay [1] (setting [4]) and in assay [2] (setting [4]) were 1.27 µM and above 10 µM, respectively.

Regarding `CC(C)(C)c1ccc(COC(=O)N[C@@](C)(Cc2c[nH]c3ccccc23)C(=O)NCC2(c3ccccn3)CCCCC2)cc1` [Example 98, {(S)-2-(1H-Indol-3-yl)-1-methyl-1-[(1-pyridin-2-yl-cyclohexylmethyl)-carbamoyl]-ethyl}-carbamic acid 4-tert-butyl-benzyl ester], the IC50 in assay [1] (setting [3]) is 1.99 µM; in assay [2] (setting [3]), above 10 µM.

`C[C@@](Cc1c[nH]c2ccccc12)(NC(=O)c1cc2ccccc2[nH]1)C(=O)NCC1(c2ccccn2)CCCCC1` [Example 61, 1H-Indole-2-carboxylic acid {(S)-2-(1H-indol-3-yl)-1-methyl-1-[(1-pyridin-2-yl-cyclohexylmethyl)-carbamoyl]-ethyl}-amide]: the IC50 in assay [1] (setting [4]) came out at 0.289 µM; in assay [2] (setting [4]) it was 0.527 µM.

`Cc1ccc(C(=O)N[C@@](C)(Cc2c[nH]c3ccccc23)C(=O)NCC2(c3ccccn3)CCCCC2)s1` [Example 75, 5-Methyl-thiophene-2-carboxylic acid {(S)-2-(1H-indol-3-yl)-1-methyl-1-[(1-pyridin-2-yl-cyclohexylmethyl)-carbamoyl]-ethyl}-amide]: the IC50 was 1.66 µM in assay [1] (setting [4]) and above 10 µM in assay [2] (setting [4]).

Consider `C[C@@](Cc1c[nH]c2ccccc12)(NC(=O)c1ccccc1F)C(=O)NCC1(c2ccccn2)CCCCC1` [Example 49, 2-Fluoro-N—{(S)-2-(1H-indol-3-yl)-1-methyl-1-[(1-pyridin-2-yl-cyclohexylmethyl)-carbamoyl]-ethyl}-benzamide], for which the IC50 was 3.95 µM in assay [1] (setting [4]) and above 10 µM in assay [2] (setting [4]).

In the case of `C[C@@](Cc1c[nH]c2ccccc12)(NC(=O)c1ccc2cc[nH]c2c1)C(=O)NCC1(c2ccccn2)CCCCC1` [Example 66, 1H-Indole-6-carboxylic acid {(S)-2-(1H-indol-3-yl)-1-methyl-1-[(1-pyridin-2-yl-cyclohexylmethyl)-carbamoyl]-ethyl}-amide], the IC50 in assay [1] (setting [4]) was 1.6 µM; in assay [2] (setting [4]), above 10 µM.

On to `COc1ccc(COC(=O)N[C@@](C)(Cc2c[nH]c3ccccc23)C(=O)NCC2(c3ccccn3)CCCCC2)cc1` [Example 92, {(S)-2-(1H-Indol-3-yl)-1-methyl-1-[(1-pyridin-2-yl-cyclohexylmethyl)-carbamoyl]-ethyl}-carbamic acid 4-methoxy-benzyl ester], for which the IC50 in assay [1] (setting [3]) is 1.61 µM; in assay [2] (setting [3]) it was above 10 µM.

As to `COc1ccc(C2(CNC(=O)[C@](C)(Cc3ccccc3)Nc3nc(-c4ccc([N+](=O)[O-])cc4)co3)CCCCC2)nc1` [Example 12, (S)-N-[1-(5-Methoxy-pyridin-2-yl)-cyclohexylmethyl]-2-methyl-2-[4-(4-nitro-phenyl)-oxazol-2-ylamino]-3-phenyl-propionamide], the Ki in assay [1] (Table 1, human NMB receptor binding affinity, Ki from IC50 by Cheng-Prusoff, read-out: NMB Ki) worked out at 0.016 µM; in assay [2] (Table 1, human GRP receptor binding affinity, Ki from IC50 by Cheng-Prusoff, read-out: GRP Kj) it was 2.82 µM.

For the compound `C[C@@](Cc1c[nH]c2ccccc12)(NC(=O)c1cccc(C#N)c1)C(=O)NCC1(c2ccccn2)CCCCC1` [Example 38, 3-Cyano-N—{(S)-2-(1H-indol-3-yl)-1-methyl-1-[(1-pyridin-2-yl-cyclohexylmethyl)-carbamoyl]-ethyl}-benzamide], the IC50 was 2.04 µM in assay [1] (setting [4]) and above 10 µM in assay [2] (setting [4]).
